In assay [1] the target is Human full-length SHP2 recombinant protein (Homo sapiens (Human), UniProt Q06124). As to the kind of experiment: Assay of full-length SHP2 phosphatase activity. The class given is biochemical. As to conditions: DiFMUP substrate, with activating peptide. As for the experimental part:
Example 2 Assay of Full-Length SHP2 Phosphatase Activity
1. Reagents and Materials • Human full-length SHP2 recombinant protein: BPS Bioscience, Cat #79018; • SHP2 substrate DiFMUP (1 mM): BPS Bioscience, Cat #79769; • SHP2 activating peptide (100 μM): BPS Bioscience, Cat #79319-2; • DTT: Merck, Cat #DTT-RO; • 384-well plate: Corning, Cat #3575; • 96-well plate: Thermo Fisher Scientific, Cat #249952; • Instrument: EnVision 2104, PerkinElmer.
2. Preparation of Reaction Solutions
The test compound was dissolved in DMSO and diluted with DMSO to 100.0 μM, and the compound was further 3-fold diluted with DMSO to: 100.00, 33.33, 11.11, 3.70, 1.23, 0.41, 0.14 and 0.05 μM.
3. Experimental Steps • To the corresponding wells of the 384-well plate was added 2.5 μL of 4× test compound or 2.5 μL of 4% DMSO solution, and centrifugation was carried out at 1000 rpm for 30 seconds. • To the test compound well and positive control well was added 2.5 μL of 4× mixed solution of SHP2 enzyme/activating peptide while to the negative control well was added 2.5 μL of 1× enzymatic reaction buffer; centrifugation was carried out at 1000 rpm for 30 seconds and incubation was carried out at room temperature for 30 minutes. • To each well was added 5 μL of 2×DiFMUP substrate to initiate the enzymatic reaction, then the plate was transiently oscillated and centrifuged at 1000 rpm for 30 seconds, and the 384-well plate was sealed with a sealing membrane and incubated at 25° C. on a low-speed shaker (100 rpm) in the dark for 60 minutes. • The fluorescence value (relative fluorescence units, RFU) of each well was detected on EnVision2104 (excitation: 355 nm, emission: 460 nm).
wherein • the RFU of compound well refers to the fluorescence reading at 460 nm of the well containing the test compounds; • the RFU of negative control well refers to the fluorescence reading at 460 nm of the background well containing 1% DMSO and the enzymatic reaction buffer; • the RFU of positive control well refers to the fluorescence reading at 460 nm of the well containing 1% DMSO and the mixed solution of SHP2 enzyme/activating peptide.
(§1) IC50 values were calculated following formula 205: y=A+((B−A)/(1+((C/X)^D))), by using the XL-Fit 5.0 software.

Assay [2] has as its system pERK1/2 (Thr202/Tyr204) in Miapaca2 cells. As to the kind of experiment: Assay of intracellular pERK1/2 (Thr202/Tyr204) phosphorylation. As to conditions: pERK1/2 (Thr202/Tyr204) HTRF. The class given is cell-based. As for the experimental part:
Example 3 Assay of Intracellular pERK1/2 (Thr202/Tyr204) Phosphorylation
1. Reagents and Materials • pERK1/2 (Thr202/Tyr204) HTRF kit: Cisbio, Cat #64ERKPEH; • Cell line: Miapaca2, ATCC, CRL-1420; • OptiPlate™-384-well plate: PerkinElmer, Cat #6007299; • 96-well plate: Corning, Cat #353072; • Instrument: EnVision2104, PerkinElmer.
2. Preparation of Reaction Solutions • The test compound was dissolved in DMSO and diluted with DMSO to 600.0 μM, and the compound was further 3-fold diluted with DMSO to: 600.0, 200.0, 66.7, 22.2, 7.4, 2.5, 0.82 and 0.27 μM. Then 10 μL of the compound at different dilution concentrations was added to 190 μL of a DMEM medium to prepare a 10× test compound, wherein DMSO was at the concentration of 5% (DMSO was at the final concentration of 0.5%). • 1× cell lysis buffer: 4× cell lysis stock solution (provided by the kit) was diluted 4-fold with deionized water, and then 1% 100× blocking stock solution (provided by the kit) was added thereto. • pERK1/2 detection solution (prepared just before use): the pERK1/2 d2 antibody (provided by the kit) and pERK1/2 Cryptate antibody (provided by the kit) were diluted with the detection solution (provided by the kit) at a ratio of 1:1:38.
3. Experimental Steps • Miapaca2 cells were inoculated into a 96-well plate at a density of 10000 cells/well at 90 μL/well and cultured in a cell incubator at 5% CO2 and 37° C. overnight. • 10 μL of 10× test compound was added to the 90 μL cell culture 96-well plate; to the cell positive control well was added 10 μL of 5% DMSO culture solution; and the plate was cultured in a cell incubator at 5% CO2 and 37° C. for 2 hours. • The medium in the 96-well plate was removed; 50 μL of 1× cell lysis buffer was added to each well; the plate was placed in a microplate shaker; and lysis under shaking was carried out at 900 rpm at room temperature for 1 hour. • 16 μL of the lysis buffer in the 96-well plate was taken and transferred to a 384-well plate, and centrifugation was carried out at 1000 rpm for 30 seconds; then 4 μL of pERK1/2 detection solution was added to each well and centrifugation was carried out at 1000 rpm for 30 seconds; and the 384-well plate was sealed with a sealing membrane and incubated at 25° C. on a low-speed shaker (100 rpm) in the dark for 2 hours. • The fluorescence value (relative fluorescence units, RFU) of each well was detected on EnVision2104 (emission 1: 665 nm, emission 2: 615 nm).
wherein • the fluorescence ratio of compound well refers to the fluorescence ratio of the well containing the test compounds; • the fluorescence ratio of negative control well refers to the fluorescence ratio of the background containing the cell lysis buffer and no Miapaca2 cells; • the fluorescence ratio of positive control well refers to the fluorescence ratio of the well containing 0.5% DMSO and Miapaca2 cells.
as §1

Where only a bound is given, the exact number is not on record here.

Chain of Human full-length SHP2 recombinant protein (Q06124 whole entry): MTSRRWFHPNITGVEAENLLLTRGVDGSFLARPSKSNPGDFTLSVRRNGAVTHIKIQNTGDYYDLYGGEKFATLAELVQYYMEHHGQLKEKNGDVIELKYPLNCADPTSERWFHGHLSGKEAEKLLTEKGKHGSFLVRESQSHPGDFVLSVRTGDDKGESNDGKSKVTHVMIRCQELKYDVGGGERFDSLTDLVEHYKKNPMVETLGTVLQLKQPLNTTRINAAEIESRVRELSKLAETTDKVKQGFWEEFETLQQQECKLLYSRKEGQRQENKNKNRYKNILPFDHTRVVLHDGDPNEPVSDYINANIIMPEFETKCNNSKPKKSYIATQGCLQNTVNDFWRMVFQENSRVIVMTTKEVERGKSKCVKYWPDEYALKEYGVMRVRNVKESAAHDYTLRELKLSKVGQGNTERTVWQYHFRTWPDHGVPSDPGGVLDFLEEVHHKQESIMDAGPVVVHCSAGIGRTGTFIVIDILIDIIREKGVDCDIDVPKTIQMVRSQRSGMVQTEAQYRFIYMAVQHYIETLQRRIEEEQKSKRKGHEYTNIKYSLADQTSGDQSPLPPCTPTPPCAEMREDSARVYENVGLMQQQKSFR

In general, IC50 refers to the point on the concentration scale where inhibition reaches its midpoint. Take `C#Cc1ccc2c(c1)[C@@H](N)C1(CCN(c3cc(=O)n(-c4ccccc4C(F)(F)F)c(C)n3)CC1)C2` [Compound 107]: the IC50 in assay [1] is 739 nM; in assay [2] (Homo sapiens, MIA PaCa-2, 2 h), > 1000 nM.

With `Cc1nc(N2CCC3(CC2)Cc2ccc(C#CCN(C)C)cc2[C@H]3N)n2ccnc2c1Sc1ccnc(N)c1Cl` [Compound 75], the IC50 in assay [1] came to 2 nM; in assay [2] (Homo sapiens, MIA PaCa-2, 2 h), 46 nM.

Turning to `C#Cc1ccc2c(c1)[C@@H](N)C1(CCN(c3cc(=O)n(-c4cccc(OC)c4Cl)c(C)n3)CC1)C2` (atropisomer, axis not shown) [Compound 111], the IC50 in assay [1] stood at 2 nM; in assay [2] (2 hours), 15 nM.

Turning to `C#Cc1ccc2c(c1)[C@@H](N)C1(CCN(c3cc(=O)n(-c4ccc(C#N)c(OC)c4Cl)c(C)n3)CC1)C2` (atropisomer, axis not shown) [Compound 190], the IC50 in assay [1] worked out at 253 nM; in assay [2] (2 hours), 672 nM.

As for `C#Cc1ccc2c(c1)[C@@H](N)C1(CCN(c3cc(=O)n(-c4cccc(OC)c4Cl)c(C)n3)CC1)C2` (atropisomer, axis not shown) [Compound 110], the values for the IC50 in assay [1] and in assay [2] (2 hours) were 249 nM and 959 nM, respectively.

Regarding `NC(=O)C#Cc1ccc2c(c1)[C@@H](N)C1(CCN(c3ncc(Sc4ccnc(N)c4Cl)c4nccn34)CC1)C2` [Compound 128], the IC50 in assay [1] amounted to 0.9 nM; in assay [2] (Homo sapiens, MIA PaCa-2, 2 h), 15 nM.

For the compound `C#Cc1ccc2c(c1)[C@@H](N)C1(CCN(c3cc(=O)n(-c4cccc(Cl)c4Cl)c(C)n3)CC1)C2` [Compound 64], the half-maximal inhibitory concentration (IC50) worked out at 184 nM in assay [1] and 891 nM in assay [2] (Homo sapiens, MIA PaCa-2, 2 h).

For the compound `Cc1nc(N2CCC3(CC2)Cc2ccc(C#C[C@@H](C)O)cc2[C@H]3N)cc(=O)n1-c1cccc(Cl)c1Cl` [Compound 37], the IC50 in assay [1] stood at 44 nM; in assay [2] (Homo sapiens, MIA PaCa-2, 2 h), 599 nM.

`C#Cc1ccc2c(c1)[C@@H](N)C1(CCN(c3cc(=O)n(-c4cccc(Cl)c4F)c(C)n3)CC1)C2` (atropisomer, axis not shown) [Compound 66]: the IC50 in assay [1] is 24 nM; in assay [2] (2 hours), 271 nM.

As to `CN(C)CC#Cc1ccc2c(c1)[C@@H](N)C1(CCN(c3ncc(Sc4ccnc(N)c4Cl)c4nccn34)CC1)C2` [Compound 71], the IC50 was determined as 1 nM in assay [1] and 22 nM in assay [2] (Homo sapiens, MIA PaCa-2, 2 h).

Turning to `CC#Cc1ccc2c(c1)[C@@H](N)C1(CCN(c3cnc(Sc4ccnc(N)c4Cl)c(N)n3)CC1)C2` [Compound 131], the IC50 in assay [1] is 3 nM; in assay [2] (Homo sapiens, MIA PaCa-2, 2 h), 4 nM.

For `Cc1nc(N2CCC3(CC2)Cc2ccc(C#CCOC(C)(C)C)cc2[C@H]3N)cc(=O)n1-c1cccc(Cl)c1Cl` [Compound 31], the IC50 was determined as 5 nM in assay [1] and 37 nM in assay [2] (Homo sapiens, MIA PaCa-2, 2 h).

In the case of `Cc1nc(N2CCC3(CC2)Cc2ccc(C#C[C@H](C)O)cc2[C@H]3N)cc(=O)n1-c1cccc(Cl)c1Cl` [Compound 38], the IC50 in assay [1] is 46 nM; in assay [2] (Homo sapiens, MIA PaCa-2, 2 h), 343 nM.

In the case of `Cc1nc(N2CCC3(CC2)Cc2ccc(Nc4cnn(C)c4)cc2[C@H]3N)cc(=O)n1-c1cccc(Cl)c1Cl` [Compound 63], the IC50 turned out to be 4 nM in assay [1] and 177 nM in assay [2] (Homo sapiens, MIA PaCa-2, 2 h).

Turning to `C#Cc1ccc2c(c1)[C@@H](N)C1(CCN(c3cc(=O)n(-c4ccc(F)c(F)c4Cl)c(C)n3)CC1)C2` (atropisomer, axis not shown) [Compound 113], the values for the IC50 in assay [1] and in assay [2] (2 hours) were 2 nM and 14 nM, respectively.

In the case of `C#Cc1ccc2c(c1)[C@@H](N)C1(CCN(c3cc(=O)n(-c4ccnc(Cl)c4)c(C)n3)CC1)C2` [Compound 60], the IC50 in assay [1] was 13 nM; in assay [2] (Homo sapiens, MIA PaCa-2, 2 h), > 1000 nM.

For `COCC#Cc1ccc2c(c1)[C@@H](N)C1(CCN(c3ncc(Sc4ccnc(C)n4)c4nccn34)CC1)C2` [Compound 132], the IC50 came out at 3 nM in assay [1] and 9 nM in assay [2] (Homo sapiens, MIA PaCa-2, 2 h).

As to `Cc1nc(N2CCC3(CC2)Cc2ccc(C#CC(N)=O)cc2[C@H]3N)cc(=O)n1-c1cccc(Cl)c1Cl` [Compound 127], the IC50 in assay [1] came to 0.6 nM; in assay [2] (Homo sapiens, MIA PaCa-2, 2 h), 13 nM.

On to `COCCSc1ccc2c(c1)[C@@H](N)C1(CCN(c3cc(=O)n(-c4cccc(Cl)c4Cl)c(C)n3)CC1)C2` [Compound 99], for which the IC50 in assay [1] turned out to be 2 nM; in assay [2] (Homo sapiens, MIA PaCa-2, 2 h) it was 40 nM.

With `C#Cc1ccc2c(c1)[C@@H](N)C1(CCN(c3cc(=O)n(-c4ccccc4SC)c(C)n3)CC1)C2` [Compound 133], the IC50 amounted to 29 nM in assay [1] and 147 nM in assay [2] (Homo sapiens, MIA PaCa-2, 2 h).

`CC#Cc1ccc2c(c1)[C@@H](N)C1(CCN(c3cc(=O)n(-c4cccc(Cl)c4Cl)c(C)n3)CC1)C2` [Compound 79]: the IC50 in assay [1] amounted to 1 nM; in assay [2] (Homo sapiens, MIA PaCa-2, 2 h), 60 nM.

Take `COCC#Cc1ccc2c(c1)[C@@H](N)C1(CCN(c3cnc(Sc4ccnc(N)n4)c(N)n3)CC1)C2` [Compound 112]: the IC50 worked out at 2 nM in assay [1] and 6 nM in assay [2] (Homo sapiens, MIA PaCa-2, 2 h).

As for `COCC#Cc1cccc2c1CC1(CCN(c3cc(=O)n(-c4cccc(Cl)c4Cl)c(C)n3)CC1)[C@@H]2N` [Compound 96], the IC50 turned out to be 5 nM in assay [1] and 55 nM in assay [2] (Homo sapiens, MIA PaCa-2, 2 h).

As to `C#Cc1ccc2c(c1)OC1(CCN(c3cc(=O)n(-c4cccc(Cl)c4Cl)c(C)n3)CC1)[C@@H]2N` (atropisomer, axis not shown) [Compound 11], the IC50 in assay [1] stood at 97 nM; in assay [2] (Homo sapiens, MIA PaCa-2, 2 h), 1150 nM.

As to `COCC#Cc1ccc2c(c1)[C@@H](N)C1(CCN(c3nc(C)n(-c4cccc(Cl)c4Cl)c(=O)c3C)CC1)C2` [Compound 36], the IC50 in assay [1] stood at 6 nM; in assay [2] (Homo sapiens, MIA PaCa-2, 2 h), 33 nM.

`CC#Cc1ccc2c(c1)[C@@H](N)C1(CCN(c3cc(=O)n(-c4ccc(F)c(OC)c4Cl)c(C)n3)CC1)C2` (atropisomer, axis not shown) [Compound 208]: the IC50 was determined as 58 nM in assay [1] and 187 nM in assay [2] (2 hours).

As for `C#Cc1ccc2c(c1)CC1(CCN(c3cc(=O)n(-c4cccc(Cl)c4Cl)c(C)n3)CC1)[C@@H]2N` (atropisomer, axis not shown) [Compound 20], the IC50 in assay [1] amounted to 12 nM; in assay [2] (Homo sapiens, MIA PaCa-2, 2 h) it was 52 nM.

On to `C#Cc1ccc2c(c1)[C@@H](N)C1(CCN(c3cc(=O)n(-c4ccc(F)c(OC)c4F)c(C)n3)CC1)C2` (atropisomer, axis not shown) [Compound 89], for which the figures for the IC50 in assay [1] and in assay [2] (2 hours) were 15 nM and 153 nM, respectively.

Turning to `C#Cc1ccc2c(c1)[C@@H](N)C1(CCN(c3cc(=O)n(-c4cc(OC)ccc4Cl)c(C)n3)CC1)C2` [Compound 44], the IC50 in assay [1] was 60 nM; in assay [2] (Homo sapiens, MIA PaCa-2, 2 h) it was 415 nM.

The values above are taken from patent US20240140931A1, “TRICYCLIC COMPOUNDS AND USES THEREOF” (HUTCHMED LIMITED, priority 2021, published 2024).
